The record followed here is patent US20260137711A1, “COMBINATION THERAPY FOR CANCER” (NATIONAL UNIVERSITY OF IRELAND, GALWAY, priority 2022, published 2026).

Holding throughout (type): cell-based, human
Assay [1] has as its system MCF10A cells. Briefly: Long-term cell proliferation assay, crystal violet staining. To be noted: 31 nM BI-1347 alone, 7 days, compared to controls. The method, then: (a and b) MCF10A cells were plated at equal low density and then either mock treated or treated with 31 nM BI-1347, in the presence or absence of XL413 at a doses of (a) 1.25 μM or (b) 10 μM over a 7 day period. Representative images of crystal violet-stained cells are shown alongside quantitation of crystal violet intensity normalised to the untreated control.
Briefly, MCF10A cells were mock-treated or treated in the continued presence of a dual-specificity CDK8/CDK19 inhibitor, BI-1347, in the presence or absence of XL413 at two different concentrations (1.25 μM and 10 μM) for a 7-day period. Relative cell proliferation was estimated by staining cells with crystal violet and measuring staining intensities. […] Importantly the addition of BI-1347 to XL413 caused a further reduction in cell number with staining intensity decreasing by 70% and 95% respectively.
MCF10A cells were seeded at 4,000 cells per well of a 6 well plate and after 24 hours were treated with inhibitors before being incubated for 7 days at 37° C. with 5% CO2. Media was removed from the cells which were then washed with PBS and air dried before being fixed with 100% methanol for 1 hour. Following removal of methanol the plates were air-dried, stained with crystal violet staining solution (0.2% crystal violet, 25% methanol) for 1 hour at room temperature, washed with ddH2O and air-dried. Plates were scanned using a HP Scanjet 4050, to generate images of crystal violet stained cells, and crystal violet staining intensity was acquired using the Odyssey infrared imaging system and Image Studio software (LI-COR Biosciences).

The test system of assay [2] is MCF10A cells. Description: Flow cytometry of cell cycle distribution and DNA synthesis (EdU/DAPI). The method, then: (c) A typical profile obtained by flow cytometry of MCF10A cells labelled with EdU and DAPI that indicates the gating applied in order to determine the percentage of cells with sub-G1 DNA content (sub-G1), G1 cells (G1), replicating early-mid S phase cells (Early-Mid S/EdU+), replicating mid-late S phase cells (Mid-Late S/EdU+), cells with S phase DNA content but not replicating (2n<& <4n/EdU−), and cells either in G2 or mitosis (G2/M).(d-f) MCF10A cells were mock treated or treated with 10 μM XL413, in the presence or absence of increasing concentrations of the CDK8 inhibitor BI-1347, for 24 hours. (d) Cells were labelled with EdU for last 30 minutes and DNA synthesis, DNA content and cell cycle distribution were assessed by flow cytometry and analysed using the gating strategy described in above (FIG. 2c). (e) Distribution of cells in the cell cycle. (f) Fluorescence intensity, proportional to EdU incorporation, in individual S phase cells. Long and short horizontal black lines indicate the median and the interquartile range, respectively, extending from the 25th to the 75th percentile for ˜3,810 cells for each condition. Data is from a single experiment.
FIG. 3: CDK8 activity is required for efficient DNA synthesis under conditions of limited CDC7 kinase activity (a-c) MCF10A cells were mock treated or treated with 31 nM BI-1347, in the presence or absence of increasing concentrations of the CDC7 inhibitors, XL413 (a-c) and TAK-931 (d-f), for 24 hours. (a and d) Cells were labelled with EdU for last 30 minutes and DNA synthesis, DNA content and cell cycle distribution were assessed by flow cytometry and analysed using the gating strategy described in FIG. 2c.c (b and e) distribution of cells in the cell cycle. (c and f) Fluorescence intensity, proportional to EdU incorporation, in individual S phase cells. Long and short horizontal black lines indicate the median and the interquartile range, respectively, extending from the 25th to the 75th percentile for ˜4,190 cells for each condition. Data is from a single experiment.
To analyse the cell cycle and DNA synthesis, nascent DNA was labelled by incubating cells with 10 μM EdU for either 20 or 30 minutes prior to harvest, washing with PBS, and then by resuspension in PBS containing 70% EtOH for 1 hour at −20° C. After a PBS wash, incorporated EdU was labelled by incubating cells in click reaction buffer (PBS containing 10 μM 6-Carboxyfluorescine-TEG-azide, 10 mM Sodium-L-ascorbate, 2 mM Copper-II-Sulphate) for 30 minutes protected from light. Cells were washed in PBS containing 1% BSA, 5% Tween 20 and then DNA stained in PBS containing 1% BSA and 1 μg/ml DAPI. All washes involve: centrifugation at 400×g for 5 minutes, removal of supernatant from pellet, resuspension in the appropriate buffer, recentrifugation and removal of supernatant from the pellet prior to the next step.
Fluorescence intensity data for 6-Carboxyfluorescine (488_530_30 nm) and DAPI (405_450_50 nm) were acquired for 10,000 single cells on a BD FACS Canto II and analysed using FlowJo software. To further analyse fluorescence intensity, proportional to EdU incorporation, for individual cells, gates were applied on DAPI-EdU biparametric dot plots to select for EdU positive S phase cells using FlowJo. According to the required analysis these gates included either all S phase cells, or only early or late S phase cells. Fluorescence intensity (488_530_30) values per cell were exported and plotted as scatter dot plots using GraphPad prism. For comparisons of mean fluorescence intensity of a cell population across three biological repeat experiments, all fluorescence intensity values were normalised to the maximum fluorescence intensity of the untreated control sample of each respective experiment to account for absolute differences in EdU staining. […]
(In general: Flow cytometry measures light scatter and fluorescence of single cells or particles in a stream.)

The subject of a further assay is MDA-MB-231. The assay is described as above. To be noted: 31 nM BI-1347 with 1.25 μM XL413, 24 hours. As for the experimental part:
(§1) Supplemental FIG. 3: Characteristic phenotypes associated with inhibition of CDC7 and CDK8 are observed in multiple cell lines A panel of different cell lines, including: MDA-MB-468 (a-c); MDA-MB-231 (d-f); and U-2 OS (g-i), were mock treated or treated with 1.25 μM XL413 and/or 31 nM BI-1347BI-1347 for 24 hours. Cells were labelled with EdU for last 30 minutes and DNA synthesis, DNA content and cell cycle distribution were assessed by flow cytometry and analysed using the gating strategy described in FIG. 2c. (b, e and h) distribution of cells in the cell cycle. (c, f and i) Fluorescence intensity, proportional to EdU incorporation, in individual S phase cells. Long and short horizontal black lines indicate the median and the interquartile range, respectively, extending from the 25th to the 75th percentile for ˜3,922 (MDA-MB-468), ˜3,291 (MDA-MB-231), and ˜4,628 (U-2 OS) cells for each condition. Data is from a representative experiment from 3 biological repeats. […]
(§2) Fluorescence intensity data for 6-Carboxyfluorescine (488_530_30 nm) and DAPI (405_450_50 nm) were acquired for 10,000 single cells on a BD FACS Canto II and analysed using FlowJo software. To further analyse fluorescence intensity, proportional to EdU incorporation, for individual cells, gates were applied on DAPI-EdU biparametric dot plots to select for EdU positive S phase cells using FlowJo. […] Fluorescence intensity (488_530_30) values per cell were exported and plotted as scatter dot plots using GraphPad prism. For comparisons of mean fluorescence intensity of a cell population across three biological repeat experiments, all fluorescence intensity values were normalised to the maximum fluorescence intensity of the untreated control sample of each respective experiment to account for absolute differences in EdU staining. The mean fluorescence intensity values of these cell populations across three biological repeat experiments are expressed as a ratio relative to a control sample and plotted as a scatter dot plot using GraphPad prism.

In another assay the test system is MDA-MB-468. The description is as above. To be noted: 31 nM BI-1347 with 1.25 μM XL413, 24 hours. As for the experimental part:
as §1, §2

The test system of the next assay is U-2 OS. The assay is described as above. The following applies: 31 nM BI-1347 with 1.25 μM XL413, 24 hours. The method, then:
as §1, §2

The mark [3] stands for this setting: BI-1347 alone at increasing concentrations, 24 hours.
Where [4] appears, read: CDC7 inhibitor alone at increasing concentrations, absence of CDK8/CDK19i, 24 hours.
The mark [5] stands for this setting: CDC7 inhibitor at increasing concentrations together with the CDK8/CDK19 inhibitor (31 nM BI-1347), 24 hours, all doses tested.

In the case of `CN(C)C(=O)Cn1ccc(-c2ccc(-c3cncc4ccccc34)cc2)c1` [BI-1347], the “decrease in the relative staining intensity (crystal violet)” value in the assay with MCF10A cells [1] was “approximately 30%”. Moreover, the cell cycle distribution entry with MCF10A cells [2] (setting [3]) was “dose-dependent increase in G1 phase cells with a corresponding decrease in early-mid S phase cells”. In the assay with MCF10A cells [2] (setting [3]), the “rate of DNA synthesis in S phase cells” value was “subtle and dose-independent decrease”. In addition, the “increase in the potency of the CDC7 inhibitor in replication assays” value in the assay on MCF10A cells [2] (BI-1347 in combination with CDC7 inhibitors, decrease in rate of DNA synthesis) was approximately 10 fold. For the same compound, the “potentiation of cell cycle and DNA replication phenotypes imposed by CDC7 inhibition” value in the assay with MDA-MB-231, in the assay on MDA-MB-468 and in the assay on U-2 OS was “strong potentiation” in each case.
With `Cc1n[nH]cc1-c1cc2[nH]c([C@@H]3CC4CCN3CC4)nc(=O)c2s1` [TAK-931], in the assay with MCF10A cells [2] (setting [4]), the cell cycle distribution entry was “dose-dependent accumulation of mid-late S phase cells” and the “rate of DNA synthesis of S phase cells” value is given as “corresponding decrease”. Moreover, in the assay on MCF10A cells [2] (setting [5]), the cell cycle distribution result is “more pronounced accumulation of cells in mid-late S phase” and the “rate of DNA synthesis” value is given as “much more profound decrease”.
